In patent US20220062205A1, “TREATMENT OF GASTROINTESTINAL DISORDERS AND SYMPTOMS THEREOF” (Indiana University Research and Technology Corporation, priority 2018, published 2022):

Experiments:
Format in all cases: in vivo, mouse
Winnie mice [1] = experiment: Gastrointestinal transit of barium sulfate by X-ray imaging; settings: 25 mg/kg IP twice a day
Description: The small molecular APE1/Ref-1 antagonist; APX3330, was administered via IP injections in Winnie mice at a dose of 25 mg/kg (30 G needle, max volume 200 μl) dissolved in Cremphore (2%) (Sigma-Aldrich): Ethanol (2%) in sterile water (96%). Mice received alternating IP injections twice a day with 12-hour intervals, over the course of two weeks during predominate intestinal inflammation. Winnie-sham treated mice received vehicle injections excluding APX3330 drugs. All mice were monitored, weighed and faecal pellets were collected over the course of treatment. GI transit was acquired via a non-invasive radiological method. Briefly, control C57BL/6, Winnie-sham treated and Winnie-APX3330 treated mice received an administration of barium sulfate (2.5 mg/mL; max volume of 200 μl; X-OPAQUE-HD) via oral gavage. Sequential x-rays were attained by HiRay Plus Porta610HF x-ray apparatus (JOC Corp, Kanagawa, Japan; 50 kV, 0.3 mAs, exposure time 60 ms) immediately post Barium sulfate administration (0 min), every 5 minutes for the first hour, 10 minutes for the second hour and then every 20 minutes through to 250 minutes. Fujifilm FCR Capsule XL11 and analysed on eFilm 4.2.0 software developed images. Parameters of GI transit were measured by time (mins) to determine contrast passing through whole GI tract (whole transit time), stomach to caecum (oro-cecal transit time; OCTT), leaving caecum to anus (colonic transit time; CTT) and caecum retention time.

Winnie mice [2] = experiment: Intestinal permeability: FABP1 ELISA in blood sera; settings: day 14; mean±SEM, n=5
Description: The small molecular APE1/Ref-1 antagonist; APX3330, was administered via IP injections in Winnie mice at a dose of 25 mg/kg (30 G needle, max volume 200 μl) dissolved in Cremphore (2%) (Sigma-Aldrich): Ethanol (2%) in sterile water (96%). Mice received alternating IP injections twice a day with 12-hour intervals, over the course of two weeks during predominate intestinal inflammation. Winnie-sham treated mice received vehicle injections excluding APX3330 drugs. All mice were monitored, weighed and faecal pellets were collected over the course of treatment. On day 14, mice were subjected to an overdose of lethobarb (1:16 dilution, 30 G, 100 μl/20 g) IP injections for blood collections prior to harvesting colon tissues. Puncture allowed for a minimal collection of 600 μl of blood via a 26 G needle. Blood was kept on ice for 2 hours, centrifuged at 12×G at 4° C. for 15 minutes were plasma was collected and stored at −20° C. for subsequent ELISA experiments. Quantikine ELISA (mouse/rat FABP1/L-FABP) (Abcam) measured sera levels for fatty acid binding protein (FABP)-1. All samples were repeated in duplicates for statistical value. […] Microplate reader capable of measuring absorbance at 450 nm, with the correction wavelength set at 540 nm was used to detect FABP-1 protein (ng/mL) in blood sera.

Winnie mice [3] = experiment: Ex vivo whole organ bath colonic motility of colons from treated mice; settings: excised whole colons of treated Winnie mice; mean±SEM, n=5
Description: The small molecular APE1/Ref-1 antagonist; APX3330, was administered via IP injections in Winnie mice at a dose of 25 mg/kg (30 G needle, max volume 200 μl) dissolved in Cremphore (2%) (Sigma-Aldrich): Ethanol (2%) in sterile water (96%). Mice received alternating IP injections twice a day with 12-hour intervals, over the course of two weeks during predominate intestinal inflammation. Winnie-sham treated mice received vehicle injections excluding APX3330 drugs. All mice were monitored, weighed and faecal pellets were collected over the course of treatment. Colonic motility experiments were completed ex vivo. Whole colons were removed from control C57BL/6, Winnie-sham treated and Winnie-APX3330 treated mice. Colons were positioned horizontally cannulated at the oral and anal end in an organ bath superfused with carbogenated (composition in mM: NaCl 118, KCl 4.6, CaCl2 3.5, MgSO4 1.2, NAH2PO4 1, NaHCO3 25 and d-Glucose; carbongenated with 95% O2 and 5% CO2) ×1 Krebs solution whilst maintained at a temperature of 37° C. The oral cannula was connected to a reservoir with 1× Krebs solution that was adjusted to maintain intraluminal pressure (0 to +2 cm H2O). The anal end was coupled to an out-flow tube with a maximum 2 cm H2O backpressure. A recording was made by a video camera being positioned above the organ bath, this recorded the colonic contractile activity. Tissue were left to equilibrate for 30 minutes prior to 2× 20-minute recordings at increasing intraluminal pressure. Videos were transposed into spatiotemporal maps with Scribble v2.0 software and were analysed by using MATLAB, v2017a software to assess parameters of colonic motility.

CCCCCCCCCC(=CC1=C(C)C(=O)C(OC)=C(OC)C1=O)C(=O)O [APX3330]
retention time in the cecum (Winnie mice [1]; Winnie mice, mean±SEM): 86.4 ± 17.8 min | total transit time (Winnie mice [1]; Winnie mice, mean±SEM): 173.3 ± 24.6 min | oro-caecal transit time (OCTT) (Winnie mice [1]; between experimental groups, Winnie mice): No changes | colonic transit time (CTT) (Winnie mice [1]; compared to Winnie-sham treated mice): improved | FABP1 in blood sera (Winnie mice [2]): 0.6 ± 0.2 ng/mL | proportional length of colonic migrating motor complexes (CMMCs) (Winnie mice [3]): 73±1.0% | proportional short contraction length (<50% of colon length) (Winnie mice [3]): 33.9±3.8% | total length of colonic contractions relative to total colon length (Winnie mice [3]): 62.3±2.4%
